Publication PMC4195943, “A novel small-molecule MRCK inhibitor blocks cancer cell invasion” (Cell Communication and Signaling : CCS, 2014)
pIC50, pKi: −log10 of the molar value.

Legend:
[1] = tested on: MLC phosphorylation in SCC12 cells; test: MLC phosphorylation in SCC12 squamous cell carcinoma cells (quantitative western blot); format: cell-based, human
Protocol: All results are shown as mean ± standard error of n = 3 independent replicates. […] Readings were compared to the Alamar Blue metabolism in DMSO treated cells that were used as the viability standard of 100% for each replicate experiment. […] (F) Number of invading cells was determined in 5 random fields for each condition for each separate replicate experiment. All results are shown as mean ± standard error of n ≥ 3 independent replicates.
Cell lysates were prepared as described previously. For pMLC western blots, cells were lysed in a 1% (w/v) SDS, 50 mM Tris pH 7.5 buffer and lysates were passed through QIAshredder columns (Qiagen, 79654). Alternatively, for pMLC western blots lysates were prepared in lysis buffer with 50 mM Tris (pH7.5), 0.5% (w/v) SDS, supplemented with Complete Protease and PhosSTOP inhibitors (Roche). Whole cell lysates were separated by SDS-PAGE, transferred to Protran nitrocellulose membranes (Whatman), probed with primary antibodies and appropriate IR dye-conjugated secondary antibodies. Blots were visualized using a Licor Odyssey according to manufacturer’s instructions. […]

[2] = biological target: T1, PhKγ2 (Homo sapiens, UniProt P15735); test: Kinase selectivity profiling (Eurofins), PhKγ2; format: biochemical
T1 construct: purchased Eurofins
T1 sequence (P15735 1-406): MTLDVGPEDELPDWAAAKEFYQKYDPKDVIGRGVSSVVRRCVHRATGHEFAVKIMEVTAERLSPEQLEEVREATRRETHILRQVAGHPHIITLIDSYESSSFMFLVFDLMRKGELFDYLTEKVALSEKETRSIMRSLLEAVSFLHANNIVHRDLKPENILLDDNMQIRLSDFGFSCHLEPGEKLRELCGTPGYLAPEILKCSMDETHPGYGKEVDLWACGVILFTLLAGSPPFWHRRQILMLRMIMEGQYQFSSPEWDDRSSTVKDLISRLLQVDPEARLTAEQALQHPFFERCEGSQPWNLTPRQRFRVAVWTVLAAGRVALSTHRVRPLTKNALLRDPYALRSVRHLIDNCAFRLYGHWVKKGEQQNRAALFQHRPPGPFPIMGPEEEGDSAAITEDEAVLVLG
Text: (§1) The results of this screening were mapped over the annotated human kinome phylogenetic tree using Kinome Render (Figure 2).
(§2) Kinases inhibited less than 25% have their names in green text. Kinases inhibited >25% and ≤50% have yellow circles, >50% and ≤75% have orange circles, and >75% have red circles. In each case, the size of the circle is proportional to the percentage inhibition. ROCK1 and MRCKα positions are indicated on the tree for orientation purposes. Illustration reproduced courtesy of Cell Signaling Technology, Inc. (www.cellsignal.com).
(§3) MRCKα, MRCKβ, ROCK1 and ROCK2 assays were performed using an IMAP fluorescence polarization assay format (Molecular Devices Inc.). 8–12 nM of each kinase (Life Technologies) was incubated for 60 min at room temperature with 100 nM FAM-S6-ribosomal protein derived peptide (synthesized by Alta Biosciences, University of Birmingham UK) in the presence of 1 μM ATP and 0.5 mM MgCl2 in 20 mM Tris buffer (pH 7.4) containing 0.01% Tween-20 and 1 mM DTT (MRCKα and β); or 1 μM ATP, 10 mM MgCl2 in 20 mM Tris buffer (pH 7.5) containing 0.25 mM EGTA 0.01% Triton X-100 and 1 mM DTT (ROCK1 and ROCK2). […] After 30 min incubation to allow binding reagent to bind phosphorylated peptide, fluorescence polarization was measured on a Tecan Saphire^2 plate reader at excitation (470 nm) and emission (530 nm) wavelengths. […]

[3] = biological target: ROCK1 (Homo sapiens, UniProt Q13464); test: IMAP fluorescence polarization kinase assay, ROCK1; format: biochemical; design: purchased Life Technologies; details: in vitro, 1 μM ATP
Protocol: (§4) MRCKα, MRCKβ, ROCK1 and ROCK2 assays were performed using an IMAP fluorescence polarization assay format (Molecular Devices Inc.). 8–12 nM of each kinase (Life Technologies) was incubated for 60 min at room temperature with 100 nM FAM-S6-ribosomal protein derived peptide (synthesized by Alta Biosciences, University of Birmingham UK) in the presence of 1 μM ATP and 0.5 mM MgCl2 in 20 mM Tris buffer (pH 7.4) containing 0.01% Tween-20 and 1 mM DTT (MRCKα and β); or 1 μM ATP, 10 mM MgCl2 in 20 mM Tris buffer (pH 7.5) containing 0.25 mM EGTA 0.01% Triton X-100 and 1 mM DTT (ROCK1 and ROCK2). Typically, dose response analyses were performed over concentration ranges from 0.005 - 100 μM. Reactions were stopped by adding 2 assay volumes of 0.25% (v/v) IMAP binding reagent in 1× IMAP binding buffer A (Molecular Devices). After 30 min incubation to allow binding reagent to bind phosphorylated peptide, fluorescence polarization was measured on a Tecan Saphire^2 plate reader at excitation (470 nm) and emission (530 nm) wavelengths. Inhibition was calculated using no inhibitor and no enzyme controls as 0 and 100% inhibition, respectively.

[4] = logD; format: physicochemical
[5] = biological target: MRCKα (Homo sapiens, UniProt Q5VT25); test: IMAP fluorescence polarization kinase assay, MRCKα; format: biochemical; details: calculated with Cheng-Prusoff equation
Protocol: as §4

[6] = biological target: T2, PRK2 (Homo sapiens, UniProt Q16513); test: Kinase selectivity profiling (Eurofins), PRK2; format: biochemical
T2 construct: purchased Eurofins
Text: as §1, §2, §3

[7] = biological target: T3, PKAα (Homo sapiens, UniProt P17612); test: Kinase selectivity profiling (Eurofins), PKAα; format: biochemical
T3 construct: purchased Eurofins
Text: as §1, §2, §3

[8] = biological target: ROCK2 (Homo sapiens, UniProt O75116); test: IMAP fluorescence polarization kinase assay, ROCK2; format: biochemical; design: purchased Life Technologies; details: in vitro, 1 μM ATP
Protocol: as §4

MRCKα, sequence (Q5VT25 whole entry): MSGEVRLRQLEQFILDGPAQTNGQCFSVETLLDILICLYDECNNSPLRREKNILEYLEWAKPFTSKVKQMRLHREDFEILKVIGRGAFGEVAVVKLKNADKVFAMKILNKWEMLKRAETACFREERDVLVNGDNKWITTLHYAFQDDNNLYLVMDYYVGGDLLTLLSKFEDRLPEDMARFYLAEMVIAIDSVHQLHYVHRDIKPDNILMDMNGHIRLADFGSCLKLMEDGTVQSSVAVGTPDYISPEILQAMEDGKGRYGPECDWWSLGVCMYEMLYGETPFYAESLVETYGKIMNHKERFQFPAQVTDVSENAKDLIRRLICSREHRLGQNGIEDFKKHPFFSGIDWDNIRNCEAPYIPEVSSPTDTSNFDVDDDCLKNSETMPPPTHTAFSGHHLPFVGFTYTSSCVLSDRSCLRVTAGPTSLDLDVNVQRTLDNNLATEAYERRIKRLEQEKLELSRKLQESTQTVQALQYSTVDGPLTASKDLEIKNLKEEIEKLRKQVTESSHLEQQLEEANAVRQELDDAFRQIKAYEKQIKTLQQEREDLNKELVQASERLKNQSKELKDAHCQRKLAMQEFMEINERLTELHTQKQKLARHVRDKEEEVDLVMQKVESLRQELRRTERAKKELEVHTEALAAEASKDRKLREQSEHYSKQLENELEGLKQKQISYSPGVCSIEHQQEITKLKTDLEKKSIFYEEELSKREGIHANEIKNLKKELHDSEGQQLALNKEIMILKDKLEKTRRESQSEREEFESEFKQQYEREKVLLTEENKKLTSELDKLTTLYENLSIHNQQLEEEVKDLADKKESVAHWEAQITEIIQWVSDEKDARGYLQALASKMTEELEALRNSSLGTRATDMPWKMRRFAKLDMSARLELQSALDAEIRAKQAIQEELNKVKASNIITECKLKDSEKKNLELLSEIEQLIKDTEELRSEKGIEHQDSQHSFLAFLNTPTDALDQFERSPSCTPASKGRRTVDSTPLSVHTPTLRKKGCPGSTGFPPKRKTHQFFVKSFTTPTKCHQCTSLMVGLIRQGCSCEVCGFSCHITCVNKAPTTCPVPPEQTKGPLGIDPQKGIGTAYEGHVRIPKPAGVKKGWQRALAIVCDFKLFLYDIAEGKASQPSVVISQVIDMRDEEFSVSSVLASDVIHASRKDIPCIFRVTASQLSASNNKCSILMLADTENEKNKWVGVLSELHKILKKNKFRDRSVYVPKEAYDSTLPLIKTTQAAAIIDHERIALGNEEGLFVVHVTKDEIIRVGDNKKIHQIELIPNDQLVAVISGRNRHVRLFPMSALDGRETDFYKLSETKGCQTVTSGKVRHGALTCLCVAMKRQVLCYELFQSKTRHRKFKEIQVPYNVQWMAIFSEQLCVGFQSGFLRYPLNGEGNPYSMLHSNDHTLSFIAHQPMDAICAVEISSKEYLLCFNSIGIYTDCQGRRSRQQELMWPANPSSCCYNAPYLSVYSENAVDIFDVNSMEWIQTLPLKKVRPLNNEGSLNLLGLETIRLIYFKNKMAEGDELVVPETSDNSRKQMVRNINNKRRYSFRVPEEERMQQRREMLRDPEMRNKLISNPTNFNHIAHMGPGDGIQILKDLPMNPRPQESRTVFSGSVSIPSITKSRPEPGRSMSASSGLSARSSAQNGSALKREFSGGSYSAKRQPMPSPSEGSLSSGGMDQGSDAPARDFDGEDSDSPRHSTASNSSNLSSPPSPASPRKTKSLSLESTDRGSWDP
ROCK2, sequence (O75116 whole entry): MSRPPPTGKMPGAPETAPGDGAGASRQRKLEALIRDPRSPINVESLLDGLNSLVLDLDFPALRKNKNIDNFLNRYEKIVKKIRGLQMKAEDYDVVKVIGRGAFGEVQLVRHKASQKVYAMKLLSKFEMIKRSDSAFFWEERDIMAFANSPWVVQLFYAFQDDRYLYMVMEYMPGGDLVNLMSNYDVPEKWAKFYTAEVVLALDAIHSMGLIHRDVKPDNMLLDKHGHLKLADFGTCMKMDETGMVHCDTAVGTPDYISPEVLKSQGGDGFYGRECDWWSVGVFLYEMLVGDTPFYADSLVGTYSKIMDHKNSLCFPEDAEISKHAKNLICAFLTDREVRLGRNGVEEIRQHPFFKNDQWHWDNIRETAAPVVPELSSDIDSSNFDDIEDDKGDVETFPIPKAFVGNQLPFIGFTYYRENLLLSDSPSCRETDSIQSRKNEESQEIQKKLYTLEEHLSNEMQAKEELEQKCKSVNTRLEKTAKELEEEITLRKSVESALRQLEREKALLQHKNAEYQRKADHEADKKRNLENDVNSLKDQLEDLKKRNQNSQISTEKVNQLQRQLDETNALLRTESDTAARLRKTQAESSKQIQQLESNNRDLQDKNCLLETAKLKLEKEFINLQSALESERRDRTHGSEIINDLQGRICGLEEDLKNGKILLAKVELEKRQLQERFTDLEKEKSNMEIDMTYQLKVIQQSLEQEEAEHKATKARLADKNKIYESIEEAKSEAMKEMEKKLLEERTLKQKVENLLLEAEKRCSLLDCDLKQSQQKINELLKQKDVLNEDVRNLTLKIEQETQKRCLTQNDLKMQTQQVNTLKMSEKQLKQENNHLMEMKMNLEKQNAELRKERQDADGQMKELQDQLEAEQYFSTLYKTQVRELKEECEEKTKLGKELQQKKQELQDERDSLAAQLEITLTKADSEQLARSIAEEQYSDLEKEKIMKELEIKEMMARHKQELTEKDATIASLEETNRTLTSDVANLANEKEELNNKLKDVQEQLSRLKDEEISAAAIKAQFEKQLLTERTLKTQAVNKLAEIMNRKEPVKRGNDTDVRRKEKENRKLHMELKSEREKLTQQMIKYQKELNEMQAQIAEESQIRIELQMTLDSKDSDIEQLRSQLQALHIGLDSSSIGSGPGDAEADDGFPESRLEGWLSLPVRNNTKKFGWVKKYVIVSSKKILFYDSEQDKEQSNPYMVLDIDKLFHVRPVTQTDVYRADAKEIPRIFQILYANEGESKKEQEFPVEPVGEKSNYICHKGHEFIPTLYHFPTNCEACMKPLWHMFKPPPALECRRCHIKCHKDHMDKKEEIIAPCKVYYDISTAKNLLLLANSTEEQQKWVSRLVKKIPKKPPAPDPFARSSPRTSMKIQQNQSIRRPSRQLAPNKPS
ROCK1, sequence (Q13464 whole entry): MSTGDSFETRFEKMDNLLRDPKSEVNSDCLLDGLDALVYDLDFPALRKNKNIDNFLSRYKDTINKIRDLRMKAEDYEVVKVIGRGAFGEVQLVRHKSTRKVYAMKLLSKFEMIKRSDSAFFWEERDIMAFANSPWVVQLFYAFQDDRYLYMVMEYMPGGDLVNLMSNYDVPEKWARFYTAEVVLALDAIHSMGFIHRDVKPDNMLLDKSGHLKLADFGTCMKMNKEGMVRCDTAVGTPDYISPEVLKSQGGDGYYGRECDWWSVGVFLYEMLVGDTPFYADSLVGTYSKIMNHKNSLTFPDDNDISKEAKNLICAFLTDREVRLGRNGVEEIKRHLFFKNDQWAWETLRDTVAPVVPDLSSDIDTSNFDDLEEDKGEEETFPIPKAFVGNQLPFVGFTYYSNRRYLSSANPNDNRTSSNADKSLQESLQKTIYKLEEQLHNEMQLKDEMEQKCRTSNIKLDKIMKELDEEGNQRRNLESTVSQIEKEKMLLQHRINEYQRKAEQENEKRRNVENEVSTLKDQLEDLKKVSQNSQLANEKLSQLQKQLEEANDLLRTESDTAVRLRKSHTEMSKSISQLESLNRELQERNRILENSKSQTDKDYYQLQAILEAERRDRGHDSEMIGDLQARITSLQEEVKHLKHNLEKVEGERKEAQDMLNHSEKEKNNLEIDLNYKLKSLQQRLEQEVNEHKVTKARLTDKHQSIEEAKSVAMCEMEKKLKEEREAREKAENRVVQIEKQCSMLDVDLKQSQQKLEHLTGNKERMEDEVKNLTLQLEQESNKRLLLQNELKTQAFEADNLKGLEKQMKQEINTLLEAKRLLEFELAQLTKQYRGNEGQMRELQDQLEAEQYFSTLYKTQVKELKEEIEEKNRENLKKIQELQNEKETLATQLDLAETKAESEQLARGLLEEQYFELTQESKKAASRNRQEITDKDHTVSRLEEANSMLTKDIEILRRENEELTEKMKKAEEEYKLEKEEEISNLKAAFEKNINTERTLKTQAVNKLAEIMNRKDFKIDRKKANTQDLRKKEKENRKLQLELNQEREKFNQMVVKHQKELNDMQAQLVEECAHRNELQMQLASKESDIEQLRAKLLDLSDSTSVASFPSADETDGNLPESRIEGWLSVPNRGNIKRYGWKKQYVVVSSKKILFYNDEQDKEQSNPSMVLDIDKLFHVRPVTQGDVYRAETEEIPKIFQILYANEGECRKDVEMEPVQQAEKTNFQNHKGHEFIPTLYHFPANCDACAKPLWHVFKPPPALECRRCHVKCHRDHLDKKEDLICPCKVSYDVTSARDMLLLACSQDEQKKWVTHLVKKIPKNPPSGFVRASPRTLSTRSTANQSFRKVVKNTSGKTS

Row | inhibition at 10 µM [2] [%] | pIC50 [3] | logD [4] | pKi [5] | inhibition at 10 µM [6] [%] | inhibition at 10 µM [7] [%] | pIC50 [8] | SMILES | phosphorylated MLC at higher doses in SCC12 cells [1]
1 | – | – | – | – | – | – | – | C[C@@H](N)[C@H]1CC[C@H](C(=O)Nc2ccncc2)CC1 [Y27632, reference compound] | residual phosphorylated MLC
2 | > 75 | 6.64 | 0.786 | 8.00 | > 75 | > 75 | 6.91 | O=C(Nc1cn[nH]c1-c1ccccn1)c1nn(C2CCNCC2)cc1Cl [BDP5290, 4-chloro-1-(4-piperidyl)-N-[5-(2-pyridyl)-1H-pyrazol-4-yl]pyrazole-3-carboxamide] | –
